# Data: US8748462B2, “Spirocyclic GPR40 modulators” (Amgen Inc., priority 2008, dated 2014)
# Key:
# human GPR40 [1] = molecular target: T1, human GPR40 (Homo sapiens, UniProt O14842); test: Inositol phosphate accumulation assay; assay type: cell-based; conditions: A9 cell line stably transfected with GPR40; 1 hour at 37° C.; read-out: IP3 EC50
# T1 construct: expressed in transfected cells; host or cells: CHO cells stably transfected with GPR40 and Aequorin
# Experimental: An A9 cell line stably transfected with GPR40 (A9_GPR40) was used in IP accumulation assays. A9_GPR40 cells were plated in 96-well plates containing 20,000 cells/well in DMEM containing 10% FBS. After the cells attached to the well surface, the media was replaced with inositol free DMEM containing 10% dialyzed FBS and 1 μCi, mL ^3H-inositol and incubated for 16 hours. Compounds were diluted in HBSS/10 mM LiCl containing a desired amount of HSA and added directly to cells. Following 1 hour incubation at 37° C., the media was replaced with 100 μL of 20 mM formic acid to quench the reaction. 50 μL of the extract was then added to 100 μL of SPA beads, incubated overnight, and measured on a TopCount the following day.
# human GPR40 [2] = molecular target: T1, human GPR40; test: Cell-based aequorin assay; conditions: CHO cells stably transfected with GPR40 and aequorin; 0.01% HSA
# Experimental: Cell-based aequorin assays were employed to characterize the modulatory activity of compounds on the GPR40 signaling pathway. In an exemplary assay, CHO cells were stably transfected with both GPR40 and Aequorin (Euroscreen). Cells were detached from the tissue culture dish with 2 mL of trypsin (0.25% (w/v)). Trypsinization was halted with 28 mL of Hanks Buffered Salt Solution containing 20 mM Hepes (H/HBSS) and 0.01% fatty acid-free human serum albumin (HSA). Coelantrazine is added to 1 ug/mL, and the cells were incubated for 2 hours at room temperature. Compounds were dissolved in DMSO for preparation of 10 mM stock solutions. Compounds were diluted in H/HBSS containing 0.01% HSA. Serial dilutions of the test compounds were prepared to determine dose response.
# Aequorin luminescence measurements were made using an EG&G Berthold 96-well luminometer, and the response was measured over a 20 second interval after cells and compounds were mixed. The maximum relative light units was plotted to determine dose response. The EC50 (effective concentration to reach 50% maximal response) was determined from the dose response plot.
# T1 sequence (O14842 whole entry): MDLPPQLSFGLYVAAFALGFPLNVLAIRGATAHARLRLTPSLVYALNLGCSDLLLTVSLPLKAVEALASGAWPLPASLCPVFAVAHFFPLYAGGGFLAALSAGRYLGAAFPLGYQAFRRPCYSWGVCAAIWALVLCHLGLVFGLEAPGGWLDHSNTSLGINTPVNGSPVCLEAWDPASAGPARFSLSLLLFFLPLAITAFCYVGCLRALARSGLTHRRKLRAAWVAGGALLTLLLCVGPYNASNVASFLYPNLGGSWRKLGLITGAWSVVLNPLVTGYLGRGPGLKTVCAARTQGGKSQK
SMILES,EC50 (human GPR40 [1]),EC50 (human GPR40 [2])
"COc1ccc(F)c(-c2ccc(COc3ccc4c(c3)[C@]3(CC4)C[C@H]3C(=O)O)cc2[C@@H]2CCCC2(C)C)c1 (single isomer, unassigned) [Example 9]",0.01 to 0.1 µM,0.1 to 1 µM
"COc1ccc(F)c(-c2ccc(COc3ccc4c(c3)[C@]3(CC4)C[C@H]3C(=O)O)cc2[C@H]2CCCC2(C)C)c1 (single isomer, unassigned) [Example 11]",< 0.01 µM,0.01 to 0.1 µM
"COc1ccc(F)c(-c2ccc(COc3ccc4c(c3)[C@]3(CC4)C[C@H]3C(=O)O)cc2[C@@H](OC)C(C)(C)C)c1 (single isomer, unassigned) [Example 12]",< 0.01 µM,0.01 to 0.1 µM
"COc1ccc(F)c(-c2cc(F)c(COc3ccc4c(c3)[C@]3(CC4)C[C@H]3C(=O)O)cc2[C@H]2CCCC2(C)C)c1 (single isomer, unassigned) [Example 14]",< 0.01 µM,0.1 to 1 µM
"COc1ccc(F)c(-c2ccc(COc3ccc4c(c3)[C@]3(CC4)C[C@H]3C(=O)O)cc2[C@H]2CCCCC2(C)C)c1 (single isomer, unassigned) [Example 15]",< 0.01 µM,0.01 to 0.1 µM
"COc1ccc(F)c(-c2c(F)cc(COc3ccc4c(c3)[C@]3(CC4)C[C@H]3C(=O)O)cc2[C@H]2CCCC2(C)C)c1 (single isomer, unassigned) [Example 16]",< 0.01 µM,0.01 to 0.1 µM
"COc1cc(-c2cc(F)c(COc3ccc4c(c3)[C@]3(CC4)C[C@H]3C(=O)O)cc2[C@@H]2CCCC2(C)C)c(F)cn1 (single isomer, unassigned) [Example 17]",< 0.01 µM,0.01 to 0.1 µM
"COc1ccc(F)c(-c2c(F)cc(COc3ccc4c(c3)[C@]3(CC4)C[C@H]3C(=O)O)cc2[C@@H]2CCCC2(C)C)c1 (single isomer, unassigned) [Example 18]",< 0.01 µM,0.1 to 1 µM
"COc1cc(-c2ccc(COc3ccc4c(c3)[C@]3(CC4)C[C@H]3C(=O)O)cc2[C@@H](OC)C(C)(C)C)c(F)cn1 (single isomer, unassigned) [Example 28]",< 0.01 µM,0.1 to 1 µM
"COc1cc(-c2ccc(COc3ccc4c(c3F)[C@]3(CC4)C[C@H]3C(=O)O)cc2[C@@H](OC)C(C)(C)C)c(F)cn1 (single isomer, unassigned) [Example 30]",< 0.01 µM,0.01 to 0.1 µM
"COc1ccc(F)c(-c2ccc(COc3ccc4c(c3F)[C@]3(CC4)C[C@H]3C(=O)O)cc2[C@@H](OC)C(C)(C)C)c1 (single isomer, unassigned) [Example 31]",< 0.01 µM,0.01 to 0.1 µM
"COc1cc(-c2ccc(COc3ccc4c(c3F)[C@]3(CC4)C[C@H]3C(=O)O)cc2[C@@H]2CCCC2(C)C)c(F)cn1 (single isomer, unassigned) [Example 32]",< 0.01 µM,0.1 to 1 µM
"COc1ccc(F)c(-c2ccc(COc3cc(F)c4c(c3F)[C@]3(CC4)C[C@H]3C(=O)O)cc2[C@H]2CCCC2(C)C)c1 (single isomer, unassigned) [Example 33]",< 0.01 µM,0.1 to 1 µM
"COc1cc(-c2ccc(COc3cc(F)c4c(c3F)[C@]3(CC4)C[C@H]3C(=O)O)cc2[C@@H]2CCCC2(C)C)c(F)cn1 (single isomer, unassigned) [Example 41, (1R,2R)-6′-(3-((R)-2,2-dimethylcyclopentyl)-4-(5-fluoro-2-methoxypyridin-4-yl)benzyloxy)-4′,7′-difluoro-2′,3′-dihydrospiro[cyclopropane-1,1′-indene]-2-carboxylic acid or (1S,2S)-6′-(3-((R)-2,2-dimethylcyclopentyl)-4-(5-fluoro-2-methoxypyridin-4-yl)benzyloxy)-4′,7′-difluoro-2′,3′-dihydrospiro[cyclopropane-1,1′-indene]-2-carboxylic acid]",< 0.01 µM,0.1 to 1 µM
"COc1cc(-c2ccc(COc3ccc4c(c3)[C@]3(CCC4)C[C@H]3C(=O)O)cc2[C@@H](OC)C(C)(C)C)c(F)cn1 (single isomer, unassigned) [Example 44]",< 0.01 µM,0.01 to 0.1 µM
"COc1ccc(F)c(-c2cc(F)c(COc3ccc4c(c3)[C@]3(CCC4)C[C@H]3C(=O)O)cc2[C@H]2CCCC2(C)C)c1 (single isomer, unassigned) [Example 45]",< 0.01 µM,0.1 to 1 µM
"COc1ccc(F)c(-c2ccc(COc3ccc4c(c3)[C@]3(CCC4)C[C@H]3C(=O)O)cc2[C@@H](OC)C(C)(C)C)c1 (single isomer, unassigned) [Example 46]",< 0.01 µM,0.01 to 0.1 µM
"C=CC(C)(C)c1cc(COc2ccc3c(c2)[C@]2(CC3)C[C@H]2C(=O)O)ccc1-c1cc(OC)ncc1F [Example 123, (1R,2R)-6′-(4-(5-Fluoro-2-methoxypyridin-4-yl)-3-(2-methylbut-3-en-2-yl)benzyloxy)-2′,3′-dihydrospiro[cyclopropane-1,1′-indene]-2-carboxylic acid]",–,1 to 10 µM
"O=C(O)[C@@H]1C[C@]12CCc1ccc(Oc3ccc(C(F)(F)F)c(Br)c3)cc12 [Example 124, (1R,2R)-6′-(3-Bromo-4-(trifluoromethyl)phenoxy)-2′,3′-dihydrospiro[cyclopropane-1,1′-indene]-2-carboxylic acid]",–,1 to 10 µM

# Further lines, results first:
EC50 (human GPR40 [1]),EC50 (human GPR40 [2]),SMILES
0.01 to 0.1 µM,0.1 to 1 µM,COc1cccc(-c2ccc(COc3ccc4c(c3)[C@]3(CCC4)C[C@H]3C(=O)O)cc2[C@H](OC)C(C)(C)C)c1F (racemic) [Example 134]
0.01 to 0.1 µM,0.1 to 1 µM,CO[C@@H](c1cc(COc2ccc3c(c2)[C@]2(CCC3)C[C@H]2C(=O)O)ccc1-c1cccc(Cl)c1)C(C)(C)C (racemic) [Example 137]
< 0.01 µM,0.1 to 1 µM,COc1cc(-c2ccc(COc3ccc4c(c3)[C@]3(CCC4)C[C@H]3C(=O)O)cc2[C@H](OC)C(C)(C)C)c(Cl)cn1 (racemic) [Example 139]
< 0.01 µM,0.01 to 0.1 µM,"COc1ccc(F)c(-c2ccc(COc3ccc4c(c3)[C@]3(CCC4)C[C@H]3C(=O)O)cc2[C@H]2CCCC2(C)C)c1 (single isomer, unassigned) [Example 47]"
< 0.01 µM,0.01 to 0.1 µM,"COc1ccc(F)c(-c2ccc(COc3ccc4c(c3F)[C@]3(CCC4)C[C@H]3C(=O)O)cc2[C@H]2CCCC2(C)C)c1 (single isomer, unassigned) [Example 51]"
1 to 10 µM,> 10 µM,"COc1ccc(F)c(-c2ccc(COc3ccc4c(c3F)[C@@]3(CCC4)C[C@@H]3C(=O)O)cc2[C@H]2CCCC2(C)C)c1 (single isomer, unassigned) [Example 52]"
< 0.01 µM,0.01 to 0.1 µM,"COc1cc(-c2ccc(COc3ccc4c(c3F)[C@]3(CCC4)C[C@H]3C(=O)O)cc2[C@@H](OC)C(C)(C)C)c(F)cn1 (single isomer, unassigned) [Example 53]"
< 0.01 µM,0.01 to 0.1 µM,"COc1ccc(F)c(-c2ccc(COc3ccc4c(c3F)[C@]3(CCC4)C[C@H]3C(=O)O)cc2[C@@H](OC)C(C)(C)C)c1 (single isomer, unassigned) [Example 54]"
< 0.01 µM,0.1 to 1 µM,"COc1ccc(F)c(-c2cc(F)c(COc3ccc4c(c3F)[C@]3(CCC4)C[C@H]3C(=O)O)cc2[C@H]2CCCC2(C)C)c1 (single isomer, unassigned) [Example 56]"
< 0.01 µM,0.1 to 1 µM,"COc1cc(-c2cc(F)c(COc3ccc4c(c3F)[C@]3(CCC4)C[C@H]3C(=O)O)cc2[C@H]2CCCC2(C)C)c(F)cn1 (single isomer, unassigned) [Example 57]"
< 0.01 µM,0.1 to 1 µM,"COc1cc(-c2ccc(COc3cc4c(cn3)CC[C@]43C[C@H]3C(=O)O)cc2[C@@H](OC)C(C)(C)C)c(F)cn1 (single isomer, unassigned) [Example 58, (2′R,5R)-3-({4-(5-Fluoro-2-methoxypyridin-4-yl)-3-1[(1S)-1-methoxy-2,2-dimethylpropyl]phenyl}methoxy)-6,7-dihydrospiro[cyclopenta[c]pyridine-5,1′-cyclopropane]-2′-carboxylic acid or (2′R,5R)-3-({4-(5-fluoro-2-methoxypyridin-4-yl)-3-[(1R)-1-methoxy-2,2-dimethylpropyl]phenyl}methoxy)-6,7-dihydrospiro[cyclopenta[c]pyridine-5,1′-cyclopropane]-2′-carboxylic acid]"
